According to US20250154129A1, “CRYSTALLINE PHARMACEUTICALLY ACCEPTABLE SALT AND POLYMORPHIC FORM OF THE […] CYCLASE INHIBITOR VAROGLUTAMSTAT” (VIVORYON THERAPEUTICS N.V., priority 2023, published 2025):

Tests used:
[1] = system: CCL2/CCR2 axis; settings: three-week repeated administration, 30 and 100 mg/kg, twice daily; dose-dependent; cited from earlier work
[2] = Solubility in water of salt forms from 1 g scale salt screening in isopropanol; format: physicochemical; settings: 20° C.
Description: (§1) For such salts with a clear stoichiometry, their preparation was then repeated on 1 g scale (free base) in isopropanol with the acid slowly being added followed by seeding (seeds as obtained from the screening experiment). The solids were then further characterized with regard to: • Handling of crystals, • Crystal habit (microscopy, macroscopic): presence and shape of crystals, • Crystallinity (quality of crystals, XRPD), • Thermal analysis (DSC and TGA), • Hygroscopicity (DVS), and • Solubility in water.

[3] = Solubility screen of the hydrochloride salt in single solvents (HPLC of mother liquor); format: physicochemical; settings: 20° C.
Method: As a first step, a solubility screen of the hydrochloride salt (obtained from the 1 g scale experiments in Example 3.2) was performed in single solvents as listed in Table 5. This was done in order to identify the most suitable solvents for the process development.
The resulting suspensions were equilibrated for at least 4 hours and the mother liquors sampled for solubility determination by HPLC (see “Description of analytical procedures used in the Examples of the invention” for method details).
• Column: ZORBAX BONUS RP 150 mm×4.6 mm; 3.5 um • Eluent A: 0.05% HCOOH in H2O • Eluent B: 0.05% HCOOH in ACN • Flow 1.00 ml/min • Gradient: 2 min 100% Eluent A, linear increase of Eluent B from 2 to 20 min from 0 to 100% • Detection: UV at 225 nm

[4] = pKa of Varoglutamstat (weak base); format: physicochemical
[5] = Solubility screening of the Varoglutamstat free base (HPLC of mother liquor); format: physicochemical
Method: 75 mg of solid were transferred into a glass vial, a magnetic stir bar and 1.5 ml of solvent were added. […] The vials were then cooled to 20° C. and stirred for another 30 min. When completely dissolved, additional solid material was added, and the vial equilibrated for at least 3 hours at 20° C.
The mother liquor was sampled and analyzed for content via HPLC versus an external standard solution (1-point calibration).
• Column: PHENOMENEX LUNA C18, 50×4.6 mm, 3 μm, • Mobile phase A: 0.05% TFA in water, • Mobile phase B: 0.05% TFA in acetonitrile. • Gradient: 10% to 90% B in 10 min, 2 min hold, re-equilibrate to initial gradient composition. • Flow: 1.0 mL/min. • Detection: UV at 225 nm.

[6] = system: mice doubly transgenic for human APP and human glutaminyl cyclase; settings: chronic oral dosing; cited from earlier work
[7] = Hygroscopicity (DVS) of salt forms from Example 3.2; format: physicochemical; settings: 1 g scale, isopropanol
Description: as §1
VTI-SA by TA Instruments with Isotherm Software for data acquisition and handling, glass sample holder and de-ionised water for vapour production.

[8] = Crystallinity by XRPD of salt forms from Example 3.2; format: physicochemical; settings: 1 g scale, isopropanol
Description: as §1
• Angle: 2θ=2° to 2θ=40° • Sampling width 0.02 • Measurement time: 75 minutes.
Solid was positioned on sample holder, prepared with grease and flattened with a disc of glass.

[9] = system: Aβ soluble protofibrils; settings: adult patients with early Alzheimer disease; cited from earlier work
[10] = DMSO, solution obtained: solubility identical or higher than 50 mg/mL
[11] = MeOH, solution obtained: solubility identical or higher than 50 mg/mL
[12] = Water, solution obtained: solubility identical or higher than 50 mg/mL

## CCCOc1ccc(C2C(=O)NC(=O)N2c2ccc3[nH]cnc3c2)cc1 (stereo not drawn) [PQ529]
[1]
  serum and urine CCL2: significantly reduced
  urinary protein excretion: significantly reduced

## CCCOc1ccc([C@H]2CNC(=O)N2c2ccc3[nH]cnc3c2)cc1 [TosOH]
[2]; procedure of Example 4.1
  Solubility in water: 3600 µM

## CCCOc1ccc([C@H]2CNC(=O)N2c2ccc3[nH]cnc3c2)cc1.Cl [Varoglutamstat Hydrochloride, (S)-1-(1H-benzo[d]imidazol-5-yl)-5-(4-propoxyphenyl) imidazolidin-2-one hydrochloride]
[3]; ACN
  ML free base: 0.1 mg/mL
  calculated HCl: 0.1 mg/mL
[3]; Acetone
  ML free base: 0.1 mg/mL
  calculated HCl: 0.1 mg/mL
[3]; [10]
  ML free base: 51.7 mg/mL
  calculated HCl: 57.3 mg/mL
[3]; EtOAc
  ML free base: 0.0 mg/mL
  calculated HCl: 0.0 mg/mL
[3]; EtOH
  ML free base: 41.3 mg/mL
  calculated HCl: 45.8 mg/mL
[3]; Heptane
  ML free base: 0.0 mg/mL
  calculated HCl: 0.0 mg/mL
[3]; IPA
  ML free base: 3.6 mg/mL
  calculated HCl: 4.0 mg/mL
[3]; IPrOAc
  ML free base: 0.0 mg/mL
  calculated HCl: 0.0 mg/mL
[3]; MEK
  ML free base: 0.0 mg/mL
  calculated HCl: 0.0 mg/mL
[3]; MIBK
  ML free base: 0.1 mg/mL
  calculated HCl: 0.1 mg/mL
[3]; Me-THF
  ML free base: 0.0 mg/mL
  calculated HCl: 0.0 mg/mL
[3]; [11]
  ML free base: 47.5 mg/mL
  calculated HCl: 52.6 mg/mL
[3]; TBME
  ML free base: 0.0 mg/mL
  calculated HCl: 0.0 mg/mL
[3]; THF
  ML free base: 0.0 mg/mL
  calculated HCl: 0.0 mg/mL
[3]; Toluene
  ML free base: 0.1 mg/mL
  calculated HCl: 0.1 mg/mL
[3]; [12]
  ML free base: 52.0 mg/mL
  calculated HCl: 57.6 mg/mL
[3]; nBuOH
  ML free base: 3.9 mg/mL
  calculated HCl: 4.4 mg/mL
[3]; nPrOH
  ML free base: 10.4 mg/mL
  calculated HCl: 11.5 mg/mL

## CCCOc1ccc([C@H]2CNC(=O)N2c2ccc3[nH]cnc3c2)cc1 [Varoglutamstat free base, (S)-1-(1H-benzo[d]imidazol-5-yl)-5-(4-propoxyphenyl)imidazolidin-2-one]
[4]
  pKa: 4.55
[5]; methyl-isobutyl-ketone, dichloro-methane, 20° C.
  solubility in organic solvents: good
[5]; organic solvent or mixture, thermodynamic from solid, acetone, tetrahydrofuran, methyl-tetrahydrofuran, methyl-ethylketone, 2-pentanone, acetonitrile, dimethylsulfoxide, methanol, ethanol, isopropanol, n-propanol, n-butanol, 20° C., read-out: excellent solubility in organic solvents
  solubility: ≥ 30 mg/mL
[5]; tert-butyl-methyl-ketone, ethyl-acetate, isopropyl-acetate, heptane, toluene, 20° C.
  solubility in organic solvents: poorly soluble or insoluble
[5]; thermodynamic from solid, water, equilibrated at 20° C.
  solubility at 30 min: < 1 mg/mL
[5]; water, forms a sticky/oily suspension
  Solubility in water: almost insoluble
[2]; procedure of Example 4.1, listed as free base
  Solubility in water: 890 µM
[6]
  brain pyroglutamate Aβ: reduce
  recall in the Morris water maze test of spatial memory: improve

## Fumarate
[7]
  hygroscopicity: high
[8]
  crystallinity (by XRPD): mediocre

## Oxalate
[7]
  hygroscopicity: high
[8]
  crystallinity (by XRPD): low

B1: Leqembi: humanized IgG1 monoclonal antibody which binds to Aβ soluble protofibrils with high affinity (antibody, chains of the INN, looked up, V domains shown)
VH: EVQLVESGGGLVQPGGSLRLSCSASGFTFSSFGMHWVRQAPGKGLEWVAYISSGSSTIYYGDTVKGRFTISRDNAKNSLFLQMSSLRAEDTAVYYCAREGGYYYGRSYYTMDYWGQGTTVTVSS
VL: DVVMTQSPLSLPVTPGAPASISCRSSQSIVHSNGNTYLEWYLQKPGQSPKLLIYKVSNRFSGVPDRFSGSGSGTDFTLRISRVEAEDVGIYYCFQGSHVPPTFGPGTKLEIK
[9]
  brain amyloid: reduce
  cognitive decline: modestly slow
